Measured values as given in patent publication US7297353B2, “Use of anemonin for treating aseptic inflammations” (priority 2000, dated 2007).
Entries after “also recorded” stand apart in the source; their conditions may differ. Where two headings read alike, the source gives them in different places.

Tests used:
[1] = tested on: IFN-γ; test: Cytokine production from splenocytes, ConA stimulation, IFN-γ (ELISA); assay type: cell-based, murine; details: 24 h
Protocol: For splenocyte cytokine production assay, 5×10^6 cells per well were inoculated into a 24-well tissue culture plate with ConA (5 mg/L) or Sac (1:10000) stimulation. Different concentrations of Anemonin were added in a final volume of 2 ml. Cells were incubated at 37° C., 5% CO2 for 24 h and supernatants were harvested, IFN-γ, IL-10, IL12 (p40) and IL-2 in supernatants were measured by the sandwich enzyme-linked immunosorbent assay (ELISA) as specified by the manufacturer (BD Bioscience pharmingen, US). Concentrations of the cytokine productions were calculated based on standard curves obtained from serial dilutions of murine cytokines (r IFN-γ, rIL-10, rIL12, rIL-2). As shown in Tables C-3 and C-4, high-dose Anemonin (1-100 μg/ml) inhibited all kinds of cytokine release induced by ConA or Sac.

[2] = tested on: murine spleens cells stimulated with LPS; test: B-cell proliferation, spleen cells stimulated with LPS ([3H]-thymidine uptake); assay type: cell-based, ICR mice; details: for [^3H]-TDRincorparation(CPM × 10^−3): LPS 10 μg/ml, 48 hrs
Protocol: Fresh spleen cells were obtained from ICR mice (male, 7-9 weeks old), 5×10^5 of spleen cells were cultured in 96-well flat plates with […] of RPMI 1640 media containing 10% FBS, 100 U/ml penicillin and 100 μg/ml streptomyin in a humidified, 37° C., 5% CO2 incubator for 48 hrs. The cultures were either unstimulated, or were stimulated with 5 μg/ml of ConA or 10 μg/ml of LPS to induce T cells or B cells proliferative responses respectively. The compounds were added in cultures with indicated concentrations to test their bioactivities. Profileration was assessed in terms of uptake of [^3H]-thymidine during 6-12 hours pulsing with 20 kBq [^3H]-thymidine/well, then the cells were harvested by a Basic 96 harvester, and counted in a 1540 MicroBeta Trilux (PerkinElmer Life Sciences).

[3] = Stability test for prolonged storage; assay type: physicochemical; details: anemonin in the present medication
Excerpt: According to preferred embodiments of the present invention, when the extracted anemonin or anemonin extract liquor is mixed with one or more Chinese herbs or chemical pharmaceuticals, the stability of the anemonin is not affected by the combined Chinese herbs, chemical components contained therein or the pharmaceuticals, and the amenonin can still effectively treat various aseptic inflammations.

[4] = tested on: T-lymphocytes from the whole spleen of mice; test: ConA-induced responsive proliferation of T-lymphocytes ([3H] thymidine); assay type: cell-based; details: for Proliferation of T-lymphocytes ConA stimulation Average of CPM values: ConA at 51 μg/ml, 48 hours
Protocol: (§1) 5.2.1. Mice were sacrificed by removing spondyle, spleen was cut off in a sterile condition and then ground to obtain single cell suspension. After erythrocytes were got rid of the remained cells were diluted to […] with RPMI-1640 culture solution containing 10% fetal bovine serum.
5.2.2. 200 μl solution in total volume (including 100 μl the cell suspension, 50 μl sample and 50 μl ConA or LPS) was dispensed on 96-well plate.
50 μl culture solution containing 10% fetal bovine serum, instead of 50 μl sample, was added as negative control, in which the total volume was also 200 μl.
5.2.3. The cell was cultured at 37° C. and under 5% CO2 in incubator for 48 hours, and [^3H] thymidine (1.9×10^4 Bq) was added to the plate at 25 μl/well 12 hours before the end of culture.
5.2.4. The culture was continued. The plates were then stored at −20° C. in refrigeratory after the culture. The thawed cells were collected to fiberglass membrane (Nitrocellose membrane) with cell collector when detecting. After the addition of Scintillation solution, the quantity of [^3H] thymidine incorporated into DNA of cells was detected by Beta counter (MicroBeta Trilux, PerkinElmer LifeSciences). The proliferation of lymphocytes was indicated by cpm value.
Effect of the medicament on ConA-induced responsive proliferation of T-lymphocytes was examined, said T-lymphocytes were from the whole spleen of mice. ConA at 51 μg/ml final concentration was used as the stimulator to induce responsive proliferation of T-lymphocytes from the whole spleen of ICR homogenous mice (cultured in vitro for 48 hours).

[5] = tested on: lymphocytes from the whole spleen of ICR mice; test: Effect on survival rate of lymphocytes (MTT); assay type: cell-based; details: for MTT Average of OD values: 48-hour culture
Protocol: as §1, with “5.1.1.” for “5.2.1.”, “off” for “off in a sterile condition”, “serum. In addition, all these performances must be sterile.” for “serum.”
5.1.2. 200 μl solution in total volume (including 100 μl the cell suspension, 50 μl sample and 50 μl culture solution containing 10% fetal bovine serum) was dispensed on 96-well plate. 100 μl the cell suspension and 100 μl culture solution (200 μl in total volume) were added as negative control.
5.1.3. The cell was cultured at 37° C. and under 5% CO2 in incubator for 48 hours, and added MTT to the plate at […] 6 to 7 hours before the end of culture.
5.1.4. 100 μl of supernatant was sucked out when the culture was ended, and then lytic solution was added at 100 μl/well. The plates were kept in incubator for 6 to 7 hours. The survival rate was calculated according to the OD value (at 570 nm) measured by microplate reader.
Effect of different concentrations of Anemonin on survival rate of lymphocytes were determined, said lymphocytes were from the whole spleen of ICR mice after 48-hour culture.

O=C1C=CC2(CCC23C=CC(=O)O3)O1 (centres unmarked) [Anemonin, anemonin]
IFN-γ ([1]; 0.001 μg/ml): 2405 ± 171 pg/mL
IFN-γ ([1]; 0.01 μg/ml): 2651 ± 120 pg/mL
IFN-γ ([1]; 0.1 μg/ml): 2298 ± 4 pg/mL
IFN-γ ([1]; 1 μg/ml): 508 ± 16 pg/mL
IFN-γ ([1]; 10 μg/ml): 94 ± 0 pg/mL
IFN-γ ([1]; 100 μg/ml): 89 ± 3 pg/mL
[^3H]-TDRincorparation(CPM × 10^−3) ([2]; 0.001 μg/ml): 52.0 ± 2.27 CPM × 10^−3
[^3H]-TDRincorparation(CPM × 10^−3) ([2]; 0.01 μg/ml): 47.2 ± 3.41 CPM × 10^−3
[^3H]-TDRincorparation(CPM × 10^−3) ([2]; 0.1 μg/ml): 47.5 ± 3.60 CPM × 10^−3
[^3H]-TDRincorparation(CPM × 10^−3) ([2]; 1 μg/ml): 34.4 ± 2.41 CPM × 10^−3
[^3H]-TDRincorparation(CPM × 10^−3) ([2]; 10 μg/ml): 0.11 ± 0.15 CPM × 10^−3
[^3H]-TDRincorparation(CPM × 10^−3) ([2]; 100 μg/ml): 0.17 ± 0.26 CPM × 10^−3
B-cell proliferation ([2]; 1-100 μg/ml): significantly inhibited
stability on prolonged storage [3]: at least 5 years
Proliferation of T-lymphocytes ConA stimulation Average of CPM values ([4]; 0.001 μg/ml, Table B-4): 15466 CPM
Proliferation of T-lymphocytes ConA stimulation Average of CPM values ([4]; 0.01 μg/ml, Table B-4): 19386 CPM
Proliferation of T-lymphocytes ConA stimulation Average of CPM values ([4]; 0.1 μg/ml, Table B-4): 15284 CPM
Proliferation of T-lymphocytes ConA stimulation Average of CPM values ([4]; 1 μg/ml, Table B-3): 8650 CPM
Proliferation of T-lymphocytes ConA stimulation Average of CPM values ([4]; 1 μg/ml, Table B-4): 8438 CPM
Proliferation of T-lymphocytes ConA stimulation Average of CPM values ([4]; 10 μg/ml, Table B-3): 171 CPM
Proliferation of T-lymphocytes ConA stimulation Average of CPM values ([4]; 10 μg/ml, Table B-4): 46 CPM
Proliferation of T-lymphocytes ConA stimulation Average of CPM values ([4]; 100 μg/ml, Table B-3): 160 CPM
Proliferation of T-lymphocytes ConA stimulation Average of CPM values ([4]; 100 μg/ml, Table B-4): 155 CPM
inhibition at 0.001 µg/mL ([4]; Mus musculus, T-lymphocyte, 0.001 μg/ml, ConA stimulation, Table B-4, read-out: General assess of activity Enhancement/Inhibition): 11%
inhibition at 0.01 µg/mL ([4]; Mus musculus, T-lymphocyte, 0.01 μg/ml, ConA stimulation, Table B-4, read-out: General assess of activity Enhancement/Inhibition): -11%
inhibition at 0.1 µg/mL ([4]; Mus musculus, T-lymphocyte, 0.1 μg/ml, ConA stimulation, Table B-4, read-out: General assess of activity Enhancement/Inhibition): 13%
inhibition at 1 µg/mL ([4]; Mus musculus, T-lymphocyte, 1 μg/ml, ConA stimulation, Table B-3, read-out: General assess of activity Enhancement/Inhibition): 47%
inhibition at 1 µg/mL ([4]; Mus musculus, T-lymphocyte, 1 μg/ml, ConA stimulation, Table B-4, read-out: General assess of activity Enhancement/Inhibition): 52%
inhibition at 10 µg/mL ([4]; Mus musculus, T-lymphocyte, 10 μg/ml, ConA stimulation, Table B-3, read-out: General assess of activity Enhancement/Inhibition): 99%
inhibition at 10 µg/mL ([4]; Mus musculus, T-lymphocyte, 10 μg/ml, ConA stimulation, Table B-4, read-out: General assess of activity Enhancement/Inhibition): 100%
inhibition at 100 µg/mL ([4]; Mus musculus, T-lymphocyte, 100 μg/ml, ConA stimulation, Table B-3, read-out: General assess of activity Enhancement/Inhibition): 99%
inhibition at 100 µg/mL ([4]; Mus musculus, T-lymphocyte, 100 μg/ml, ConA stimulation, Table B-4, read-out: General assess of activity Enhancement/Inhibition): 99%
inhibition of ConA-induced responsive proliferation of lymphocytes ([4]; final concentration range from 0.1 μg/ml to 100 μg/ml): remarkably inhibited; also recorded: sharply inhibited
MTT Average of OD values ([5]; 0.001 μg/ml, Table B-2): 0.087
Decrease of survival rate of lymphocytes Yes/No ([5]; 0.001 μg/ml, Table B-2): Yes
MTT Average of OD values ([5]; 0.01 μg/ml, Table B-2): 0.068
Decrease of survival rate of lymphocytes Yes/No ([5]; 0.01 μg/ml, Table B-2): Yes
MTT Average of OD values ([5]; 0.1 μg/ml, Table B-2): 0.061
Decrease of survival rate of lymphocytes Yes/No ([5]; 0.1 μg/ml, Table B-2): Yes
MTT Average of OD values ([5]; 1 μg/ml, Table B-1): 0.052
MTT Average of OD values ([5]; 1 μg/ml, Table B-2): 0.002
Decrease of survival rate of lymphocytes Yes/No ([5]; 1 μg/ml, Table B-1): Yes
Decrease of survival rate of lymphocytes Yes/No ([5]; 1 μg/ml, Table B-2): Yes
MTT Average of OD values ([5]; 10 μg/ml, Table B-1): 0.002
MTT Average of OD values ([5]; 10 μg/ml, Table B-2): 0.008
Decrease of survival rate of lymphocytes Yes/No ([5]; 10 μg/ml, Table B-1): Yes
Decrease of survival rate of lymphocytes Yes/No ([5]; 10 μg/ml, Table B-2): Yes
MTT Average of OD values ([5]; 100 μg/ml, Table B-1): 0.163
MTT Average of OD values ([5]; 100 μg/ml, Table B-2): 0.145
inhibition in survival rate of the lymphocytes ([5]; final concentration range from 0.001 μg/ml to 10 μg/ml): obvious inhibition; also recorded: obvious effect
